Consider one molecule from patent US20070009944A1, “Assay for nucleic acid ligase and nucleic acid nuclease” (University of East Anglia, priority 2005, published 2007).

pIC50: −log10 of the molar value. Counter-ions that a name gives are not always drawn.

The target in this test is T1, E. coli DNA ligase (LigA) (Escherichia coli, UniProt P15042).
T1 construct: His tag; made in house
Put plainly: In-well ligation of immobilised nicked DNA hairpins (fluorescence retention, micro-titre plate). It counts as biochemical. The settings on record: 15 nM E. coli DNA ligase; ligates 60% of immobilized hairpins without inhibitor; FIG. 8; read-out: 50% inhibition of E. coli DNA ligase activity. As to the method: Ligation of immobilised nicked hairpins was performed in the streptavidin coated wells of a micro-titre plate (StreptaWell HighBind 96-well plate, opaque, white). After each of the following steps were performed, the entire solution in the well was removed and stored or discarded, as required. Hairpins were immobilised by placing 80 μL of a 5 μM hairpin solution into each well. The hairpin solution was removed after 5 minutes and the wells washed 5 times with 100 μL Wash Buffer (30 mM Tris-HCl, 4 mM MgCl2, pH 8.1), which allowed a stable fluorescence signal to be obtained from the immobilised hairpins. […] Fluorescence was recorded with a FL×800 Microplate Fluorescence Reader (Bio-Tek Instruments Inc). […]
In-well ligation of the nicked DNA hairpins by LigA was reflected by retention of fluorescence after exposure to DNA ligase and denaturation conditions, as shown in FIG. 6. […] The retention of fluorescence after exposure to DNA ligase and denaturation conditions is in contrast to the almost complete loss of fluorescence noted when the experiment was repeated without DNA ligase. […] The efficiency of in-well ligation was calculated in the following manner. The fluorescence retained in control experiments with the nicked hairpin was taken as a measure of background fluorescence intensity. […]

T1 sequence (P15042 whole entry): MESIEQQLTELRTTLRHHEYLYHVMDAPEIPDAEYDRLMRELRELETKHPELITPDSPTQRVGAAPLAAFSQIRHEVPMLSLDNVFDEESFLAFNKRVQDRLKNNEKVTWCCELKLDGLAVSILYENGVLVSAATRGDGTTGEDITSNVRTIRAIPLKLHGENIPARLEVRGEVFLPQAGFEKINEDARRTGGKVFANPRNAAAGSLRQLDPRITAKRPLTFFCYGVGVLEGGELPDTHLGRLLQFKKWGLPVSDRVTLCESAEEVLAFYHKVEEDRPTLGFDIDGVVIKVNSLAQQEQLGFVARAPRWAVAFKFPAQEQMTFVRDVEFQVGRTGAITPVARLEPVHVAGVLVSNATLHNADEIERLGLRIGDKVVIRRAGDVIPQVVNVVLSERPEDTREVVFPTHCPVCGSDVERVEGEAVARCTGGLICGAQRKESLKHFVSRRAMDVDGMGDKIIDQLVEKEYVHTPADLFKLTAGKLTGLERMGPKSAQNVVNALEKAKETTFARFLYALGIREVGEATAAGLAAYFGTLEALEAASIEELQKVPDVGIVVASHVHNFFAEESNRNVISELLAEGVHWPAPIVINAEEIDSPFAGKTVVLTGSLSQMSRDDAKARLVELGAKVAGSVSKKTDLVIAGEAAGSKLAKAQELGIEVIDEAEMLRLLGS

For the molecule `CCN(CC)CCCC(C)Nc1c2ccc(Cl)cc2nc2ccc(OC)cc12` (stereo not shown) [quinacrine, quinacrine dihydrochloride], the pIC50 was ~4.70.
